Data reported in patent US9615577B2, “Herbicidally active cyclic dione compounds, or derivatives therefor, substituted by a phenyl which has an alkynyl-containing substituent” (Syngenta Limited, priority 2012, dated 2017).

Assays:
Assay type in all cases: in vivo
Setaria faberi (SETFA) [1] = assay: Test 1A glasshouse assay for herbicidal activity, pre-emergence; conditions: 312 h, 250 g/ha, evaluated after 13 days, read-out: percentage phytotoxicity SETFA
Method in brief: (§1)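 Glasshouse spray test with visual phytotoxicity scoring (0–100%) after 13 days. Application timing: 1 day after sowing or after 8 days' cultivation, in 0.5% Tween 20 acetone/water.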

[2] = tested on: Amaranthus retroflexus (AMARE); assay: as above; conditions: 312 h, 250 g/ha, evaluated after 13 days, read-out: percentage phytotoxicity AMARE
Method in brief: as §1

[3] = tested on: Echinochloa crus-galli (ECHCG); assay: as above; conditions: 312 h, 250 g/ha, evaluated after 13 days, read-out: percentage phytotoxicity ECHCG
Method in brief: as §1

Solanum nigrum (SOLNI) [4] = assay: as above; conditions: 312 h, evaluated after 13 days, read-out: percentage phytotoxicity SOLNI
Method in brief: as §1

[5] = tested on: Alopecurus myosuroides (ALOMY); assay: as above; conditions: 312 h, 250 g/ha, evaluated after 13 days, read-out: percentage phytotoxicity ALOMY
Method in brief: as §1

[6] = tested on: Ipomoea hederacea (IPOHE); assay: as above; conditions: 312 h, evaluated after 13 days, read-out: percentage phytotoxicity IPOHE
Method in brief: as §1

Setaria faberi (SETFA) [7] = assay: Test 1A glasshouse assay for herbicidal activity, post-emergence; conditions: 312 h, 250 g/ha, evaluated after 13 days, read-out: percentage phytotoxicity SETFA
Method in brief: as §1

[8] = tested on: Amaranthus retroflexus (AMARE); assay: as above; conditions: 312 h, 250 g/ha, evaluated after 13 days, read-out: percentage phytotoxicity AMARE
Method in brief: as §1

[9] = tested on: Echinochloa crus-galli (ECHCG); assay: as above; conditions: 312 h, 250 g/ha, evaluated after 13 days, read-out: percentage phytotoxicity ECHCG
Method in brief: as §1

Solanum nigrum (SOLNI) [10] = assay: as above; conditions: 312 h, 250 g/ha, evaluated after 13 days, read-out: percentage phytotoxicity SOLNI
Method in brief: as §1

[11] = tested on: Alopecurus myosuroides (ALOMY); assay: as above; conditions: 312 h, 250 g/ha, evaluated after 13 days, read-out: percentage phytotoxicity ALOMY
Method in brief: as §1

[12] = tested on: Ipomoea hederacea (IPOHE); assay: as above; conditions: 312 h, 250 g/ha, evaluated after 13 days, read-out: percentage phytotoxicity IPOHE
Method in brief: as §1

Setaria faberi (SETFA) [13] = assay: Biological Example 2 comparative herbicidal data, post-emergence glasshouse screen; conditions: 312 h, read-out: Post-emergence herbicidal activities (percentage phytotoxicity) SETFA
Method in brief: (§2)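 Plants grown 8 days in a glasshouse (24/16°C day/night, 14 h light, 65% humidity) were sprayed with compound in acetone/water (50:50) containing 0.5% Tween 20. They were kept under the same conditions and watered twice daily. Phytotoxicity was scored visually after 13 days (0 = no damage, 100 = total damage).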

[14] = tested on: Echinochloa crus-galli (ECHCG); assay: as above; conditions: 312 h, read-out: Post-emergence herbicidal activities (percentage phytotoxicity) ECHCG
Method in brief: as §2

[15] = tested on: Alopecurus myosuroides (ALOMY); assay: as above; conditions: 312 h, read-out: Post-emergence herbicidal activities (percentage phytotoxicity) ALOMY
Method in brief: as §2

Setaria faberi (SETFA) [16] = assay: Biological Example 3 glasshouse assay for herbicidal activity, using various adjuvant systems, post-emergence; conditions: 8 g/ha, 0.5% v/v Adigor + 1.0% v/v AMS + 12.5% v/v IPA
Method: (§3) Post-emergence foliar spray application, 200 L/ha, usually one or two replicates for the weeds (depending on application rate), and two replicates for soybean.
(§4) Standard warm conditions (tropical), in glasshouse. Specifically, the glasshouse bay conditions are 24° C./18° C. day/night; 16/8 hours light/dark; 65% humidity.
(§5) The herbicidal application takes place at the following growth stages for plants which include inter alia one or more of the following plants (usually the herbicidal application takes place on at least the following six plants: DIGSA, ELEIN, SETFA, GLXMA Nikko, and GLXMA TMG133, and either BRADC or BRAPP):
Setaria faberi (SETFA)—growth stage 12 or 13
(§6) Each test Compound is applied with one of the following adjuvant systems (all percentages are final concentrations in the aqueous spray mixture):
(§7) Adjuvant system 1: 0.5% v/v Adigor™ *, 1.0% v/v AMS (ammonium sulphate) and 12.5% v/v IPA (isopropyl alcohol).
(§8) Adjuvant system 2: 0.5% v/v Adigor™ * and 12.5% v/v IPA (isopropyl alcohol).
(§9) Adjuvant system 3: 0.5% v/v Hexamoll™ DINCH **, 1.0% v/v AMS (ammonium sulphate) and 12.5% v/v IPA (isopropyl alcohol).
(§10) Seeds of the weed plants, typically including inter alia [either Brachiaria decumbens (BRADC) or Brachiaria platyphylla (BRAPP)], Digitaria sanguinalis (DIGSA), Eleusine indica (ELEIN), Setaria faberi (SETFA) are sown in seed trays (troughs) containing clay loam soil (pH 7.0, 2.2% organic matter, “Trough Mix A”); and soybean seed is sown in pots containing the same soil with 3 soybean seedlings per pot. The plants are sprayed with the test herbicide when they reach the growth stages mentioned above.
(§11) The test herbicidal solutions are prepared by mixing the appropriate aliquots of the test substance(s) and the adjuvant system indicated above *** in deionised water to give the desired treatment concentration. […]
(§12) A visual assessment of the % herbicidal damage is made 7 and 14 Days After herbicide Application (DAA) (or, in a minority of cases, 7 and 15 DAA), and the results are recorded as % visual herbicidal damage where 0%=no damage to plants and 100%=plant totally killed. […]

[17] = tested on: Echinochloa crus-galli (ECHCG); assay: as above; conditions: 8 g/ha, 14 DAA, adjuvant system per compound
Method: as §3, §4, §5
Echinochloa crus-galli (ECHCG)—growth stage 12 or 13
as §6, §7, §8
Adjuvant system 3: 0.5% v/v Hexamoll™ DINCH **, 1.0% v/v AMS (ammonium sulphate) and 12.5% v/v IPA (isopropyl alcohol). […]
as §12

[18] = tested on: Brachiaria decumbens (BRADC); assay: as above; conditions: 8 g/ha, 14 DAA, adjuvant system per compound
Method: as §3, §4, §5
Brachiaria decumbens (BRADC)— growth stage (GS) 12 or 13 (or GS 12)—or, if BRADC is not used, then Brachiaria platyphylla (BRAPP)—growth stage 12 or 13
as §6, §7
Adjuvant system 2: 0.5% v/v Adigor™ * and 12.5% v/v IPA (isopropyl alcohol). […]
as §12

[19] = tested on: Digitaria sanguinalis (DIGSA); assay: as above; conditions: 8 g/ha, 0.5% v/v Adigor + 1.0% v/v AMS + 12.5% v/v IPA
Method: as §3, §4, §5
Digitaria sanguinalis (DIGSA)—growth stage 12 or 13
as §6, §7, §8, §9
Seeds of the weed plants, typically including inter alia [either Brachiaria decumbens (BRADC) or Brachiaria platyphylla (BRAPP)], Digitaria sanguinalis (DIGSA), Eleusine indica (ELEIN), Setaria faberi (SETFA) are sown in seed trays (troughs) containing clay loam soil (pH 7.0, 2.2% organic matter, “Trough Mix A”); and soybean seed is sown in pots containing the same soil with 3 soybean seedlings per pot. The plants are sprayed with the test herbicide when they reach the growth stages mentioned above. […]
as §12

Eleusine indica (ELEIN) = assay: as above; conditions: 8 g/ha, 15 DAA, 0.5% v/v Adigor + 1.0% v/v AMS + 12.5% v/v IPA
Method: as §3, §4, §5
Eleusine indica (ELEIN)—growth stage 12 or 13
as §6, §7, §8, §9, §10, §11, §12

[20] = tested on: Amarantus retroflexus (AMARE); assay: Biological Example 2 comparative herbicidal data, post-emergence glasshouse screen; conditions: Amaranthus retroflexus, read-out: Post-emergence herbicidal activities (percentage phytotoxicity) AMARE
[21] = tested on: Abutilon theophasti Medik. (ABUTH); assay: as above; conditions: read-out: Post-emergence herbicidal activities (percentage phytotoxicity) ABUTH
[22] = tested on: Abutilon theophasti Medik. (ABUTH); assay: Test 1A glasshouse assay for herbicidal activity, pre-emergence; conditions: 312 h, 250 g/ha, evaluated after 13 days, read-out: percentage phytotoxicity ABUTH
Method in brief: as §1

[23] = tested on: Abutilon theophasti Medik. (ABUTH); assay: Test 1A glasshouse assay for herbicidal activity, post-emergence; conditions: 312 h, 250 g/ha, evaluated after 13 days, read-out: percentage phytotoxicity ABUTH
Method in brief: as §1

Structure (SMILES)	pest or weed control at 250 g/ha (Setaria faberi (SETFA) [1]) [%]	pest or weed control at 250 g/ha [2] [%]	pest or weed control at 250 g/ha [3] [%]	pest or weed control at 250 g/ha (Solanum nigrum (SOLNI) [4]) [%]	pest or weed control at 250 g/ha [5] [%]	pest or weed control at 250 g/ha [6] [%]	pest or weed control at 250 g/ha (Setaria faberi (SETFA) [7]) [%]	pest or weed control at 250 g/ha [8] [%]	pest or weed control at 250 g/ha [9] [%]	pest or weed control at 250 g/ha (Solanum nigrum (SOLNI) [10]) [%]	pest or weed control at 250 g/ha [11] [%]	pest or weed control at 250 g/ha [12] [%]	also measured
CC#Cc1cc(C)c(C2C(=O)C3CCC(C3)C2=O)c(CCC)c1 (stereo not drawn) [Compound A-3]	100	0	100	0	100	40	90	10	100	20	90	0	
CC#Cc1cc(Cl)c(C2C(=O)C3CCC(C3)C2=O)c(CC)c1 (stereo not drawn) [Compound A-4]	70	0	100	0	100	0	80	0	100	0	90	0	
Cc1cc(C#CCl)ccc1C1C(=O)C(C)(C)OC(C)(C)C1=O [Compound A-7]	30	60	80	40	80	20	80	0	80	50	80	20	pest or weed control at 15.625 g/ha (Setaria faberi (SETFA) [13]; 15.625 g/ha application rate): 40%; pest or weed control at 62.5 g/ha (Setaria faberi (SETFA) [13]; 62.5 g/ha application rate): 60%; pest or weed control at 15.625 g/ha ([14]; 15.625 g/ha application rate): 0%; pest or weed control at 62.5 g/ha ([14]; 62.5 g/ha application rate): 60%; pest or weed control at 15.625 g/ha ([15]; 15.625 g/ha application rate): 30%; pest or weed control at 62.5 g/ha ([15]; 62.5 g/ha application rate): 50%
COc1cc(C#CCl)cc(Cl)c1C1C(=O)C2CCC(C2)C1=O (stereo not drawn) [Compound A-25, 3-[2-Chloro-4-(2-chloroethynyl)-6-methoxy-phenyl]bicyclo[3.2.1]octane-2,4-dione]													percentage control of Setaria faberi (SETFA) (Setaria faberi (SETFA) [16]; 14 DAA): 40%; percentage control of Echinochloa crus-galli (ECHCG) [17]: 45%; percentage control of Brachiaria decumbens (BRADC) [18]: 15%; percentage control of Digitaria sanguinalis (DIGSA) ([19]; 14 DAA): 60%
C#Cc1cc(Cl)c(C2C(=O)CC3(CCOCC3)CC2=O)c(OC)c1 [Compound B-1, 9-(2-Chloro-4-ethynyl-6-methoxy-phenyl)-3-oxaspiro[5.5]undecane-8,10-dione]	80	20	100		90		100	0	100		100		pest or weed control at 8 g/ha (Setaria faberi (SETFA) [13]; 8 g/ha application rate): 30%; pest or weed control at 30 g/ha (Setaria faberi (SETFA) [13]; 30 g/ha application rate): 70%; pest or weed control at 8 g/ha ([14]; 8 g/ha application rate): 20%; pest or weed control at 30 g/ha ([14]; 30 g/ha application rate): 80%; pest or weed control at 8 g/ha ([15]; 8 g/ha application rate): 10%; pest or weed control at 30 g/ha ([15]; 30 g/ha application rate): 70%; percentage control of Eleusine indica (ELEIN) (Eleusine indica (ELEIN)): 20%; pest or weed control at 8 g/ha ([20]; 8 g/ha application rate): 0%; pest or weed control at 30 g/ha ([20]; 30 g/ha application rate): 0%; percentage control of Setaria faberi (SETFA) (Setaria faberi (SETFA) [16]; 15 DAA): 50%; pest or weed control at 8 g/ha ([21]; 8 g/ha application rate): 0%; pest or weed control at 30 g/ha ([21]; 30 g/ha application rate): 10%; percentage control of Digitaria sanguinalis (DIGSA) ([19]; 15 DAA): 85%; pest or weed control at 250 g/ha [22]: 0%; pest or weed control at 250 g/ha [23]: 60%
